Earlier results as cited in patent US9884844B2 (priority 2012, dated 2018).

Details: rather increase it at high dose

O=C1NCN(c2ccccc2)C12CCN([C@@H]1CC[C@H]3CCCc4cccc1c43)CC2 [Ro64-6198]
effect on alcohol drinking: failed to decrease alcohol drinking
